Source: patent US11305024B2, “Cross-linked polymer modified nanoparticles” (OREGON HEALTH & SCIENCE UNIVERSITY, priority 2015, dated 2022)
Each block holds one compound with its values, some of them ahead of it.

Key:
HCC1954 [1] = settings: in vitro and/or in mice; cited from earlier work
[2] = metastatic solid tumor patients; cited from earlier work
luciferase = test: Luciferase silencing by siLUC-loaded nanoconstructs in LM2-4luc+/H2N cells; format: cell-based; settings: 13-130 nM GALA, 15 nM siRNA, NP/siRNA 50, non-cross-linked PEI, 2 days
Description: The LM2-4luc+/H2N cell line (over-expressing luciferase and HER2; J. M. du Manoir et al., 2006) was used for initial assessment of the nanoparticles for gene silencing efficacy when delivering siRNA against luciferase (siLUC). Cells were plated at 3000 cells/well in a 96-well plate. One day after seeding, cells were treated with siLUC-nanoparticles. The nanoparticles were loaded with siLUC at NP/siRNA ratio of 25 or 50 by mass. […] The commercially available transfection agent, DharmaFECT™ (Dharmacon, Lafayette, Colo.), with the same siLUC dose served as a positive control. Non-targeting or scrambled siRNA (siSCR) was used throughout as a negative control. After overnight incubation (−20 hours), cells were washed once to remove the nanoconstructs and replenished with a complete media. At 48 hours post-treatment, cells were lysed and analyzed for luciferase activity by the Luciferase Glow Assay Kit (Thermo Fisher Scientific, Waltham, Mass.) and protein concentration by the BCA protein assay kit (Thermo Fisher Scientific), following manufacturer's protocols. Luciferase activity of the lysate was normalized with the corresponding protein concentration in the same well and reported as a percentage of the untreated or siSCR controls. All treatments were performed with replicates.

Red blood cells = test: Hemolysis; format: cell-based, human; settings: 4 hours, 37° C.; nanoparticle 70 or 350 μg/mL (1× or 5×)
Description: Nanoparticles were tested at 1× and 5× of the intended human blood level. Studies of blood compatibility were performed following or with minor modification from the Nanotechnology Characterization Laboratory's (Frederick, Md.) published protocols.
Human blood was collected in the presence of EDTA, and serum was removed. Red blood cells were suspended at 1×10^9 cells per mL and exposed to nanoparticle (final concentrations of 70 or 350 μg/mL for 1× or 5×, respectively) for 4 hours and 37° C. Following centrifugation, absorbance of hemoglobin in the supernatants (at 542 nm) was measured and used to quantify percent hemolysis.

Platelet-rich plasma = test: Platelet aggregation assay; design: species or system human; settings: monitored for three minutes; 1× and 5×
Description: Platelet-rich plasma (PRP) was obtained following centrifugation of isolated blood (diluted in 3.2% sodium citrate, 1:10). The isolated blood was centrifuged at 200 g for 20 minutes. The supernatant (which contains PRP) was collected and maintained at room temperature prior to treatment. Following a 1-min incubation at 37° C. (baseline), reactions were initiated by addition of nanoparticle (70 or 350 μg/mL) or collagen related peptide (CRP; 100 μg/ml) and monitored for three minutes for optical density via an aggregometer (Chrono-log Corp).

HCC1954 [3] = test: Screening of siRNA in combination with paclitaxel, cell viability; format: cell-based; settings: for Cell Viability (% of Scramble Control): 30 nM siRNA; for Enhanced Paclitaxel effect due to gene knockdown: over paclitaxel alone
Description: (§1) Cells were first treated with 30 nM siRNAs (and commercial DharmaFECT™) followed by 5 nM paclitaxel treatment 24 hours later. Cell viability was determined 3 days later. […] In short, knocking down HER2 had the greatest impact on paclitaxel toxicity in BT474 (having highest HER2 level). […] The effect of paclitaxel combined with siAKT1/BCL2 or siEPS8L1 was also significant. The best enhancement by siAKT1/BCL2 (38-41%) appeared to be with basal cells, HCC1954, BT549, and HCC70. EPS8L1 is involved in EGFR signaling and functions in cell migration.

HCC70 = test: as above; format: cell-based; settings: for Cell Viability (% of Scramble Control): 30 nM siRNA; for Enhanced Paclitaxel effect due to gene knockdown: over paclitaxel alone
Description: as §1

BT474 = test: as above; format: cell-based; settings: for Cell Viability (% of Scramble Control): 30 nM siRNA; for Enhanced Paclitaxel effect due to gene knockdown: over paclitaxel alone
Description: as §1

BT549 = test: as above; format: cell-based; settings: for Cell Viability (% of Scramble Control): 30 nM siRNA; for Enhanced Paclitaxel effect due to gene knockdown: over paclitaxel alone
Description: as §1

SKBR3 = test: as above; format: cell-based; settings: for Cell Viability (% of Scramble Control): 30 nM siRNA; for Enhanced Paclitaxel effect due to gene knockdown: over paclitaxel alone
Description: as §1

[4] = tested on: basal cells, HCC1954, BT549, and HCC70; test: Screening of siRNA in combination with paclitaxel, basal cells as a group; format: cell-based
Description: as §1

[5] = Serum protection assay (siRNA in 50% human serum); format: in vitro ADME; settings: 37° C.
Description: siRNA-nanoparticles were incubated with 50 v/v % human serum in PBS for a specified period of time (0, 0.5, 1, 2, 4, 8, 24, and 48 hours) at 37° C. under continuous shaking. At the end of each time point, the sample was mixed with proteinase K (200 μg/mL) and frozen at −80° C. to stop the enzymatic reaction. For the analysis, samples were thawed and mixed with 1.0 wt. % SDS in order to release siRNA from the nanoparticles. The sample was then mixed with an equal amount of 2× loading buffer and loaded into a 15% TBE-urea gel (BioRad). The gel ran at 100 V for the first 20 minutes and 150 V for another hour. The gel was then stained with SyBR Gold (Life Technologies) following the manufacturer's protocol and viewed in a UV chamber. The band intensity was analyzed by ImageJ software (National Institutes of Health, Bethesda, Md.). The fraction of intact siRNA was reported as a function of time that the siRNA-nanoparticles were in 50% serum.

HER2+ cell lines = test: Growth inhibition by siHER2 in a panel of HER2+ cell lines; format: cell-based; settings: 19 out of 20 HER2+ cell lines; read-out: dose of the siHER2 required to inhibit cell growth by 50% (G150)
[6] = HCC1954 (HER2 positive, basal), DharmaFECT, paclitaxel −
[7] = HCC1954, then 5 nM paclitaxel 24 hours later (paclitaxel +)
[8] = HCC70 (triple negative, basal), DharmaFECT, paclitaxel −
[9] = HCC70, then 5 nM paclitaxel 24 hours later (paclitaxel +)
[10] = BT474 (HER2 positive, luminal), DharmaFECT, paclitaxel −
[11] = BT474, then 5 nM paclitaxel 24 hours later (paclitaxel +)
[12] = BT549 (triple negative, basal), DharmaFECT, paclitaxel −
[13] = BT549, then 5 nM paclitaxel 24 hours later (paclitaxel +)
[14] = SKBR3 (HER2 positive, luminal), DharmaFECT, paclitaxel −
[15] = SKBR3, then 5 nM paclitaxel 24 hours later (paclitaxel +)

Compound: N.N.[Cl][Pt][Cl] [cisplatin]
resistance of HCC1954 (HCC1954 [1]): resistant

Compound: [SH-].[SH-].[S]=[Mo]=[S] [tetrathiomolybdate]
treated patients with mild copper deficiency who achieved stable disease [2]: five out of six

Compound: GALA
effect of co-loaded peptide on silencing efficacy (luciferase): clearly enhanced silencing efficacy of the nanoconstructs

Compound: Triton-X
hemolysis of red blood cells (Red blood cells): complete blood lysis

platelet aggregation (Platelet-rich plasma): triggered aggregation immediately
Compound: collagen related peptide

Compound: pertuzumab
resistance of HCC1954 (HCC1954 [1]): resistant

Compound: siAKT1/BCL2: dual-targeting siRNA duplex, one strand targets AKT1, the other BCL2, SEQ ID NO. 7 and 8 (chain 1 AUUCAGUUUCACAUUGCUUGGUGAC; chain 2 GUCACCAAGAACUGUGACACAGAAGGG; listed as RNA, chemistry not given here)
Cell Viability (% of Scramble Control) (HCC1954 [3]; [6]): 47% | Cell Viability (% of Scramble Control) (HCC1954 [3]; [7]): 17% | Enhanced Paclitaxel effect due to gene knockdown (HCC1954 [3]; HCC1954): 38% | Cell Viability (% of Scramble Control) (HCC70; [8]): 42% | Cell Viability (% of Scramble Control) (HCC70; [9]): 29% | Enhanced Paclitaxel effect due to gene knockdown (HCC70; HCC70): 41% | Cell Viability (% of Scramble Control) (BT474; [10]): 74% | Cell Viability (% of Scramble Control) (BT474; [11]): 39% | Enhanced Paclitaxel effect due to gene knockdown (BT474; BT474): 19% | Cell Viability (% of Scramble Control) (BT549; [12]): 54% | Cell Viability (% of Scramble Control) (BT549; [13]): 23% | Enhanced Paclitaxel effect due to gene knockdown (BT549; BT549): 36% | Cell Viability (% of Scramble Control) (SKBR3; [14]): 77% | Cell Viability (% of Scramble Control) (SKBR3; [15]): 29% | Enhanced Paclitaxel effect due to gene knockdown (SKBR3; SKBR3): 10% | best enhancement of paclitaxel effect [4]: 38-41%

Compound: siHER2: siRNA against HER2, SEQ ID NO. 1 and 2 (chain 1 CACGUUUGAGUCCAUGCCCAAUU; chain 2 UUGGGCAUGGACUCAAACGUGUU; listed as RNA, chemistry not given here)
half-life [5]: about 1 hour | time within which siHER2 was degraded ([5]; without nanoparticles): ≤ 0.5 h | Cell Viability (% of Scramble Control) (HCC1954 [3]; [6]): 68% | Cell Viability (% of Scramble Control) (HCC1954 [3]; [7]): 49% | Enhanced Paclitaxel effect due to gene knockdown (HCC1954 [3]; HCC1954): 6% | Cell Viability (% of Scramble Control) (HCC70; [8]): 76% | Cell Viability (% of Scramble Control) (HCC70; [9]): 49% | Enhanced Paclitaxel effect due to gene knockdown (HCC70; HCC70): 21% | Cell Viability (% of Scramble Control) (BT474; [10]): 35% | Cell Viability (% of Scramble Control) (BT474; [11]): 26% | Enhanced Paclitaxel effect due to gene knockdown (BT474; BT474): 32% | Cell Viability (% of Scramble Control) (BT549; [12]): 51% | Cell Viability (% of Scramble Control) (BT549; [13]): 40% | Enhanced Paclitaxel effect due to gene knockdown (BT549; BT549): 19% | Cell Viability (% of Scramble Control) (SKBR3; [14]): 51% | Cell Viability (% of Scramble Control) (SKBR3; [15]): 33% | Enhanced Paclitaxel effect due to gene knockdown (SKBR3; SKBR3): 6% | IC50 (HER2+ cell lines): < 5 nM

Compound: siSCR: non-targeting or scrambled siRNA control, SEQ ID NO. 5 and 6 (chain 1 UGGUUUACAUGUCGACUAA; chain 2 UUAGUCGACAUGUAAACCA; listed as RNA, chemistry not given here) [reference compound]
Cell Viability (% of Scramble Control) (HCC1954 [3]; [7]): 55% | Cell Viability (% of Scramble Control) (HCC70; [9]): 70% | Cell Viability (% of Scramble Control) (BT474; [11]): 58% | Cell Viability (% of Scramble Control) (BT549; [13]): 59% | Cell Viability (% of Scramble Control) (SKBR3; [15]): 39%
